Results: publication PMC8250858, “A Systematic Study of the Stability, Safety, and Efficacy of the de novo Designed Antimicrobial Peptide PepD2 and Its Modified Derivatives Against Acinetobacter baumannii” (Frontiers in Microbiology, 2021)

System: A. baumannii ATCC 17978
Format: cell-based, Acinetobacter baumannii
Conditions: spotted on MHA plate, 24 h
Method: Following CLSI guideline M07-A11, single bacterial colonies of A. baumannii ATCC 17978 grown on Müller–Hinton agar (MHA) plates were picked and inoculated in 4 mL of Müller–Hinton broth (MHB) at 37°C and shaken at 180 rpm for 4∼6 h. The bacterial broth was diluted in the same medium to give a cell density of 1∼2 × 10^8 CFU/mL (OD600 = 0.38∼0.4 for A. baumannii) (Supplementary Figure 1; [Dillon et al., 2020]). Then, the broth was diluted 20-fold. Peptides were dissolved in water and filtered through a 0.2-μm filter to make a stock solution. The peptide concentration was quantified by the UV280. Then, the peptide solution was serially diluted in MHB to final peptide concentrations of 1, 2, 4, 8, 16, and 32 μg/mL. One hundred microliters of serially diluted peptide and 10 μL of bacterial culture were mixed in a 96-well polystyrene plate. Each well contained approximately 5 × 10^5 CFU/mL. The positive control was a mixture of 100 μL of MHB and 10 μL of the bacterial culture. The negative control was 110 μL of MHB. The plates were incubated at 37°C without shaking. […] The bacterium-peptide mixtures (the mixture without visible growth and the mixture containing a two-fold […] peptide concentration than the mixture without growth), positive control, and negative control (3 μL each) were spotted on an MHA plate and incubated at 37°C for 24 h. The MBC was determined as the lowest peptide concentration at which no colonies formed.
The MIC and MBC of our designed peptides against A. baumannii were obtained by using the broth microdilution method in the CLSI protocol. The bacterial cell number was carefully counted, and a final cell density of 5 × 10^5 CFU/mL in each well was used in the MIC test (Supplementary Figure 1). The minimal peptide concentration at which no bacterial growth was observed was taken as the MIC value. The culture after peptide treatment was spotted on an MHA plate, and the peptide concentration that could kill all the bacteria was defined as the MBC. The MIC/MBC and hemolytic activity of these peptides are shown and compared in Figure 1.

Substance: Ac-WKKIKKIIKKIKKI-NH2 [pepI2]
- MBC A. baumannii 17978: 4 µg/mL
